US11534475B2, “Carbohydrate-based peritoneal dialysis fluid comprising glutamine residue” (ZYTOPROTEC GmbH, priority 2007, dated 2022)
Where a SMILES comes first, the peptide text is derived from it.

Key:
mesothelial cells [1] = assay: Longterm (24 hours) exposure model, PDF diluted 1:1 with medium: viability by LDH release; type: cell-based; settings: PDF diluted 1:1 with M199, L-alanyl-L-glutamine 0.5 and 10.0 g/L, compared to standard PDF
From the text: (§1) The acute recovery experimental setting as described for glutamine as a proof of principle for the cytoprotective PDF, is best representative for the early toxic effects of PDF, mainly due to low pH and lactate as major culprits. Alternate models such as a longterm exposure model to unused PDF diluted 1:1 with normal culture medium are better accepted tools to assess effects of cellular processes that occur in the peritoneum upon more extended exposure to PDF, as occurs in clinical PD. […] Additional control cultures are kept in pure regular culture media at 37° C. for the same time. At the end of the study, cell viability and protein expression are assessed in parallel cultures to identify the cytoprotective PDF.

HSP-72 [2] = assay: Longterm (24 hours) exposure model, PDF diluted 1:1 with medium: HSP-72 expression; type: cell-based; settings: PDF diluted 1:1 with M199, L-alanyl-L-glutamine 0.5 and 10.0 g/L, compared to standard PDF
From the text: as §1

[3] = tested on: Immortalized human mesothelial cells (Met5A, ATCC CRL-9444); assay: In-vitro model of PD: viability by LDH release; type: cell-based; settings: for LDH release: % of negative control, mean+/-S.D.
Protocol: Immortalized human mesothelial cells (Met5A, ATCC CRL-9444) were cultured in M199/MCDB 105 medium (1:1) supplemented with 100 units/ml penicillin, 100 µg/ml streptomycin and 10% FCS. Cultures were kept in 75 cm^2 tissue culture flasks (Falcon, Becton Dickinson, Oxnard, Calif.) at 37° C. in 5% CO2 and passaged by regular trypsinization. Medium was changed every two to three days. Confluence was reached on average after 6 to 7 days.
Confluent cultures were then exposed for 120 minutes to standard glucose-monomer and acidic lactate-based PDF (Fresenius 2, Bad Homburg, Germany), containing 1.5% anhydrous dextrose at pH 5.5, with or without addition of cytoprotective compound (glutamine at 4 to 20 mM) and allowed to recover in regular growth medium for 16 hours. Control cultures were kept in regular culture media at 37° C. and underwent “sham media changes”, i.e.: exposure to PDF was paralleled by exposure to control medium.
Viability of cells was assessed by lactate dehydrogenase (LDH) analyses. Fifty μl aliquots of supernatants were removed after the described experimental setup and kept on 4° C. until analyzed within 48 hours. Measurements were performed in duplicates with Sigma TOX-7 LDH Kit according to the manufacturer instructions. LDH efflux was calculated as percentage of LDH values measured in each negative control experiment. Induction of HSP was assessed in parallel cultures as described below.

HSP-72 [4] = assay: In-vitro model of PD: HSP-72 expression by Western blotting; type: cell-based, human
Protocol: Immortalized human mesothelial cells […], ATCC CRL-9444) were cultured in M199/MCDB 105 medium (1:1) supplemented with 100 units/ml penicillin, 100 µg/ml streptomycin and 10% FCS. Cultures were kept in 75 cm^2 tissue culture flasks (Falcon, Becton Dickinson, Oxnard, Calif.) at 37° C. in 5% CO2 and passaged by regular trypsinization. Medium was changed every two to three days. Confluence was reached on average after 6 to 7 days. Confluent cultures were then exposed for 120 minutes to standard glucose-monomer and acidic lactate-based PDF (Fresenius 2, Bad Homburg, Germany), containing 1.5% anhydrous dextrose at pH 5.5, with or without addition of cytoprotective compound ([…] to 20 mM) and allowed to recover in regular growth medium for 16 hours. Control cultures were kept in regular culture media at 37° C. and underwent “sham media changes”, i.e.: exposure to PDF was paralleled by exposure to control medium. Western blotting: Protein content of mesothelial cell harvests was determined by Bradford assay (BioRad) and equal amounts of protein samples (5 μg/lane) were separated by standard SDS-PAGE using a Pharmacia Multiphore II unit. Size-fractionated proteins were transferred to PVDF membranes by semi-dry transfer in a Pharmacia Multiphore II Novablot unit. Membranes were blocked in 5% dry milk in TBS-Tween (10 mM Tris, 150 mM NaCl, 0.05% Tween 20, pH 8.0). Membranes were incubated with the HSP-72 antibody (SPA 810, Stressgen, B.C., Canada). Detection was accomplished by incubation with secondary, peroxidase-coupled antibodies (Sigma, USA) and enhanced chemiluminescence (ECL) using ECL Western blotting analysis system and protocols (Renaissance, NEN-Life Science Products, Boston, Mass., USA). Densitometry was performed with image analysis software (Molecular Analyst software, BioRad, USA). Differential expression of HSP-72 was derived from the ratio of specific signals in the linear range of the protein/signal intensity relationship, normalized to an internal standard, and compared between parallel experiments.

mesothelial cells [5] = assay: In-vivo acute rat model of PD: mesothelial cell detachment; design: species or system Sprague Dawley rats; settings: 4 hr dwell, intraperitoneal PDF with or without L-glutamine, mean+/-S.D.
Protocol: (§2) The studies were carried out on adult male inbred Sprague Dawley rats (average weight 310 g).
After introduction of anaesthesia (ketamine 100 mg/kg and 5 mg/kg xylazine, intramusculary) the animals were placed on a heated small animal operating table. A sterile catheter was inserted into the peritoneal cavity through a small abdominal midline incision and 35 ml of test fluid (PDF with or without addition of L-glutamine at 4-10 mM) were slowly infused in 45-60 secs. The animal was gently moved, a small volume of peritoneal fluid aspirated, the catheter withdrawn and the abdomen sutured. Animals awoke within 20 minutes after the procedure and had free access to food and tap water. At 4 hours after the intraperitoneal injection animals were again anaesthetized, another small volume of peritoneal fluid was aspirated and animals were sacrificed by cardial puncture and exsanguinations. Thereafter, the abdomen was opened by a midline incision and the complete intraperitoneal fluid gently collected. The volumes of the collected fluids were recorded, and total cell count and differential counts at the two time pints (0 and 4 hours) were assessed by hand count after giemsa staining and by machine count by a coulter counter. Total number of detached mesothelial cells was then computed for each rat. […]

peritoneal membrane = assay: In-vivo acute rat model of PD: barrier function of the peritoneal membrane; design: species or system Sprague Dawley rats; settings: 4 hr dwell
Protocol: as §2
After introduction of anaesthesia (ketamine 100 mg/kg and 5 mg/kg xylazine, intramusculary) the animals were placed on a heated small animal operating table. A sterile catheter was inserted into the peritoneal cavity through a small abdominal midline incision and 35 ml of test fluid (PDF with or without addition of L-glutamine at 4-10 mM) were slowly infused in 45-60 secs. The animal was gently moved, a small volume of peritoneal fluid aspirated, the catheter withdrawn and the abdomen sutured. Animals awoke within 20 minutes after the procedure and had free access to food and tap water. At 4 hours after the intraperitoneal injection animals were again anaesthetized, another small volume of peritoneal fluid was aspirated and animals were sacrificed by cardial puncture and exsanguinations. Thereafter, the abdomen was opened by a midline incision and the complete intraperitoneal fluid gently collected. The volumes of the collected fluids were recorded, and total cell count and differential counts at the two time pints (0 and 4 hours) were assessed by hand count after giemsa staining and by machine count by a coulter counter. Total number of detached mesothelial cells was then computed for each rat.
For testing the barrier function of the peritoneal membrane, creatinine, glucose and total protein were measured in dialysate (D) samples and creatinine in plasma (P) at the end of the protocol. D/P ratios for creatinine and D/D0 ratios for glucose were computed. Peritoneal loss of protein was calculated as final dialysate concentration×final volume.

HSP-72 [6] = assay: In-vivo acute rat model of PD: HSP-72 expression in harvested mesothelial cells; design: species or system Sprague Dawley rats; settings: 4 hr dwell, L-glutamine supplemented PDF vs standard PDF
Protocol: After introduction of anaesthesia (ketamine 100 mg/kg and 5 mg/kg xylazine, intramusculary) the animals were placed on a heated small animal operating table. A sterile catheter was inserted into the peritoneal cavity through a small abdominal midline incision and 35 ml of test fluid (PDF with or without addition of L-glutamine at 4-10 mM) were slowly infused in 45-60 secs. The animal was gently moved, a small volume of peritoneal fluid aspirated, the catheter withdrawn and the abdomen sutured. Animals awoke within 20 minutes after the procedure and had free access to food and tap water. At 4 hours after the intraperitoneal injection animals were again anaesthetized, another small volume of peritoneal fluid was aspirated and animals were sacrificed by cardial puncture and exsanguinations. Thereafter, the abdomen was opened by a midline incision and the complete intraperitoneal fluid gently collected. The volumes of the collected fluids were recorded, and total cell count and differential counts at the two time pints (0 and 4 hours) were assessed by hand count after giemsa staining and by machine count by a coulter counter. […]
Western blotting: Protein content of mesothelial cell harvests was determined by Bradford assay (BioRad) and equal amounts of protein samples (5 μg/lane) were separated by standard SDS-PAGE using a Pharmacia Multiphore II unit. […]

## C[C@H](N)C(=O)N[C@@H](CCC(N)=O)C(=O)O [L-alanyl-L-glutamine] (H-Ala-Gln-OH)
Mesothelial cells [1]
  Viability assessed by LDH release: preserved viability
HSP-72 [2]
  HSP-72 expression: increased

## NC(=O)CC[C@H](N)C(=O)O [L-glutamine]
[3]; control conditions (no PDF)
  LDH release: 91+/−7%
[3]; control conditions, L-glutamine up to 20 mM
  Viability (LDH release): unchanged viability
[3]; during exposure to PDF for 120 min, 16 hours recovery
  LDH release: 190+/−19%
HSP-72 [4]; control conditions (no PDF), relative to control, mean+/-S.D.
  HSP-72 expression: 234+/−221%
HSP-72 [4]; control conditions, L-glutamine 8 and 10 mM
  HSP-72 expression: increased
HSP-72 [4]; during exposure to PDF for 120 min, relative to control, mean+/-S.D.
  HSP-72 expression: 1895+/−1928%
Mesothelial cells [5]
  Mesothelial cell detachment: 38+/−38 cells
Peritoneal membrane
  D/Do glucose: 0.469+/−0.04
  D/P creatinine: 0.375+/−0.11
  Net ultrafiltration: 5.4 ± 2.7 mL
Peritoneal membrane; final dialysate concentration x final volume
  Protein loss into the dialysate effluate: 65 ± 4 mg
HSP-72 [6]
  HSP-72 expression in rat mesothelial cells: overexpression of HSP-72
